Patent publication US11420944B2, “Voltage-dependent t-type calcium channel blocker” (Nippon Chemiphar Co., Ltd., priority 2016, dated 2022)

molecular target: T1, human Cav3.2 channels (Homo sapiens, UniProt O95180); assay: Intracellular calcium concentration measurement (Fluo-4 AM) in stable cells expressing human Cav3.2 channels, buffer A / buffer B; assay type: cell-based; conditions: Tables 2 to 6; buffer A, equilibrium potential of potassium −92 mV; read-out: Inhibitory action of buffer A (inactivated state)
T1 construct: expressed in transfected cells; host or cells: HEK293 cells (ATCC No. CRL-1573), plasmid pcDNA3.1(+)
T1 sequence (O95180 whole entry): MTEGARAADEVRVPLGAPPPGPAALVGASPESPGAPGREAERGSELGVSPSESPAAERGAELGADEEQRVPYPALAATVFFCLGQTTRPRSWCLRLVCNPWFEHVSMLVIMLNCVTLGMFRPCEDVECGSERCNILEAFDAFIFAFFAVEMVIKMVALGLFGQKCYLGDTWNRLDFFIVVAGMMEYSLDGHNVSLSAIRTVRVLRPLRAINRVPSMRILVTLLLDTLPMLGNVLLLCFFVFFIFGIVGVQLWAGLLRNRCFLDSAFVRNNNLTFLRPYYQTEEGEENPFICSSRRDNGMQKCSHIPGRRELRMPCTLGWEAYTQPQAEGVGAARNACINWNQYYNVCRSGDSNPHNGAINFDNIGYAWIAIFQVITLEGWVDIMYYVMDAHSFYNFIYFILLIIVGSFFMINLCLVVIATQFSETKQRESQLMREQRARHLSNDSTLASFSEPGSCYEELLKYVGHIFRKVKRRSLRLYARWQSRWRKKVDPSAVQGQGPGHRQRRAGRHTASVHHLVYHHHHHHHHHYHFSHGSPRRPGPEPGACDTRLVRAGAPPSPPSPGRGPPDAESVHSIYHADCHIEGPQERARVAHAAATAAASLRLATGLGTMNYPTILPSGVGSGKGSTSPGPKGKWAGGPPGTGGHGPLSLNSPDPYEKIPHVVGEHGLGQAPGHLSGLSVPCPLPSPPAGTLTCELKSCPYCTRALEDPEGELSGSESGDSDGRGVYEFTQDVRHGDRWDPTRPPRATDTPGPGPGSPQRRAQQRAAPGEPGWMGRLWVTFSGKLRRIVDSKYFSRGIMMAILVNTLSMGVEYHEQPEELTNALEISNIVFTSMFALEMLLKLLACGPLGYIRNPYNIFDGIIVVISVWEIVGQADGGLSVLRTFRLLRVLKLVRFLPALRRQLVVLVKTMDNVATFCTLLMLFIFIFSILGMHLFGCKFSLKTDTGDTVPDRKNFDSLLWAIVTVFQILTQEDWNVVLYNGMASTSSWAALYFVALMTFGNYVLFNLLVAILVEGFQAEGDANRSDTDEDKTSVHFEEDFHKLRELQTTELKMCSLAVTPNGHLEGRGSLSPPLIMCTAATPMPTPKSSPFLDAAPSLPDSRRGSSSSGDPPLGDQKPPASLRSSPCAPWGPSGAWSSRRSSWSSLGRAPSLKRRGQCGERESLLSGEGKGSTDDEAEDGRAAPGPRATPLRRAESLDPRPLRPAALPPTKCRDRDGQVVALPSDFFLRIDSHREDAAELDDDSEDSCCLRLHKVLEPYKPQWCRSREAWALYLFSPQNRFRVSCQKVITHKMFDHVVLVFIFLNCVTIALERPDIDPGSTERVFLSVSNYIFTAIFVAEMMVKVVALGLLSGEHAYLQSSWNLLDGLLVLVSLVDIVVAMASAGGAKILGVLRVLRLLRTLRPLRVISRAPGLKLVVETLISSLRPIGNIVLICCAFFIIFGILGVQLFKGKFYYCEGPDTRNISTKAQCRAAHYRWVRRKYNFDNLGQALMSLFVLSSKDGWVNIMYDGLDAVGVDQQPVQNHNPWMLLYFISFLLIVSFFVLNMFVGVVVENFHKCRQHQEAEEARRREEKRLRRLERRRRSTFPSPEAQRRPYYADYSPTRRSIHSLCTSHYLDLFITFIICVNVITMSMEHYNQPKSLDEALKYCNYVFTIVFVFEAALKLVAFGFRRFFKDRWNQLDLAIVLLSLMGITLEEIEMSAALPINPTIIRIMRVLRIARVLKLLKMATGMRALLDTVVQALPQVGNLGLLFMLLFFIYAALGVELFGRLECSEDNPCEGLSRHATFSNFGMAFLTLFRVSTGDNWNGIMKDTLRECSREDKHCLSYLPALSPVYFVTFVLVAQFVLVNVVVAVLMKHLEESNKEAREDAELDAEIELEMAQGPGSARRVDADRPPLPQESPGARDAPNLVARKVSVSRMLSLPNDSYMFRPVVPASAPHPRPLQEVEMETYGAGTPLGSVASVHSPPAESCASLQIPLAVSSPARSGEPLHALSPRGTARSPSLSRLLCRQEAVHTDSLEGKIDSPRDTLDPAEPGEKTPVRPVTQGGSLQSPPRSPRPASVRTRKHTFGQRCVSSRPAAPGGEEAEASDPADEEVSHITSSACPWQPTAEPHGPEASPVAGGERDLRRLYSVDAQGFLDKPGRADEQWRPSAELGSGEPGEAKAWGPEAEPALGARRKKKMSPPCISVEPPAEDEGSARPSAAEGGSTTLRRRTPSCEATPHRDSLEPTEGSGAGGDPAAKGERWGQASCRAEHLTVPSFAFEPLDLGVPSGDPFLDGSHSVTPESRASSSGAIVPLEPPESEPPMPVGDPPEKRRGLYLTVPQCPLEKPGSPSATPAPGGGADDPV
Source text: Construction of Stable Cells Expressing Human Cav3.2 Channels
(1) A sequence produced by incorporating HindIII site and kozak sequence (GCCACC) into the 5′-terminal side of human Cav3.2 channel ORF (Open Reading Frame) gene and incorporating Kpnl site into the 3′-terminal side was incorporated into pcDNA3.1(+) (Thermo-Fisher Scientific, Inc., #V790-20), and the plasmid was transfected into HEK293 cells (ATCC No. CRL-1573) according to the protocol of FuGENE (registered trademark) HD Transfection Reagent (PROMEGA #E2311).
(2) Method for Measuring Intracellular Calcium Concentration
In the present measurement system, buffer A and buffer B having different potassium ion concentrations were used in order to evaluate the state-dependent Cav3.2 inhibitory action of a test compound.
Stable cell line expressing human Cav3.2 channels, which had been produced in (1), was seeded in a 96-well plate using DMEM medium including 10% FBS, and the cells were cultured for 48 hours under the conditions of 37° C. and 5% CO2. Subsequently, the medium was removed, and various wells that had been washed with a base buffer were treated with 80 μL of a fluorescent dye solution containing a mixed liquid of 22 μg of calcium fluorescence indicator Fluo-4 AM (Dojindo Laboratories Co., Ltd., #F311), 20 μL of DMSO, […] of 10% Pluronic F-127 (Thermo-Fisher Scientific, Inc., #P6866), and 4 mL of a base buffer. The cells were left to stand for 45 minutes at room temperature in the dark, and then the cells were washed with buffer A or buffer B. Solutions having various test compound concentrations and respectively containing buffer A or buffer B were added to the respective wells, the respective solutions containing DMSO at the same final concentration as that of the test compound as negative control, or containing the test compound dissolved in 100% DMSO at a final concentration of 0.1%. The cells were left to stand for another 15 minutes at room temperature in the dark, and the cells were analyzed using the following method using a microplate reader, EnVision (PerkinElmer, Inc.). First, the background fluorescence for each well was measured, subsequently an ionophore was added to the well, and the fluorescence of the baseline was measured. Subsequently, buffer A or buffer B containing added KCl at a concentration of 83.8 mM or 91.8 mM was added to each well, and an increase in fluorescence caused by a calcium influx generated by that stimulus was measured for 10 seconds. The percentage inhibition was calculated from the maximum fluorescence increment from the baseline, and the logarithmic value of the test compound concentration and the inhibitory activity were plotted to calculate the IC50 value. The analysis was carried out by measuring the fluorescence at 510 nm emitted when the cells were irradiated with exciting light at 485 nm.
Base buffer: 140 mM NaCl, 5 mM KCl, 1 mM MgCl2, 0.5 mM CaCl2, 10 mM Glucose, and 10 mM HEPES, pH 7.3
Buffer A: Equilibrium potential of potassium: −92 mV

Structure (SMILES)	IC50 [µM]
C[C@@H](NC(=O)[C@@H]1CCN(c2ccc(C(F)(F)F)cn2)C1)c1ccc(OCC(F)(F)F)s1 [Example 41, (R)—N—((R)-1-(5-(2,2,2-trifluoroethoxy)thiophen-2-yl)ethyl)-1-(5-(trifluoromethyl)pyridin-2-yl)pyrrolidine-3-carboxamide]	1 to 10
C[C@@H](NC(=O)[C@H]1C[C@@H]1c1nc(-c2ccccn2)c[nH]1)c1ccc(OCC(F)(F)F)s1 [Example 46, (1S,2S)-2-(4-(pyridin-2-yl)-1H-imidazol-2-yl)-N—((R)-1-(5-(2,2,2-trifluoroethoxy)thiophen-2-yl)ethyl)cyclopropane-1-carboxamide]	0.1 to 1
CC(C(=O)NC12CC3CC(CC(C3)C1)C2)N1CC[C@@H](C(=O)N[C@H](C)c2cnc(OCC(F)(F)F)s2)C1 (stereo partly drawn) [Example 47, (3R)-1-(1-((adamantan-1-yl)amino)-1-oxopropan-2-yl)-N—((R)-1-(2-(2,2,2-trifluoroethoxy)thiazol-5-yl)ethyl)pyrrolidine-3-carboxamide]	≤ 0.1
C[C@@H](NC(=O)[C@H]1C[C@@H]1c1nc2ccccc2[nH]1)c1ccc2c(c1)OCO2 [Example 55, (1S,2S)—N—((R)-1-(benzo[d][1,3]dioxol-5-yl)ethyl)-2-(1H-benzo[d]imidazol-2-yl)cyclopropane-1-carboxamide]	0.1 to 1
O=C(N[C@@H](c1ccc(C(F)(F)F)s1)C1CCCCC1)[C@H]1C[C@@H]1c1nc2ccccc2[nH]1 [Example 59, (1S,2S)-2-(1H-benzo[d]imidazol-2-yl)-N—((R)-cyclohexyl(5-(trifluoromethyl)thiophen-2-yl)methyl)cyclopropane-1-carboxamide]	0.1 to 1
O=C(N[C@@H](c1ccc(C(F)(F)F)s1)C1CC1)[C@H]1C[C@@H]1c1nc2ccccc2[nH]1 [Example 69, (1S,2S)-2-(1H-benzo[d]imidazol-2-yl)-N—((R)-cyclopropyl(5-(trifluoromethyl)thiophen-2-yl)methyl)cyclopropane-1-carboxamide]	0.1 to 1
C[C@@H](NC(=O)[C@H]1C[C@@H]1c1nc2ccccc2[nH]1)c1ccc2c(c1)OCCO2 [Example 70, (1S,2S)-2-(1H-benzo[d]imidazol-2-yl)-N—((R)-1-(2,3-dihydrobenzo[b][1,4]dioxin-6-yl)ethyl)cyclopropane-1-carboxamide]	1 to 10
C[C@@H](NC(=O)[C@H]1C[C@@H]1c1nc2ccccc2[nH]1)c1nc(C2CC2)no1 [Example 72, (1S,2S)-2-(1H-benzo[d]imidazol-2-yl)-N—((R)-1-(3-cyclopropyl-1,2,4-oxadiazol-5-yl)ethyl)cyclopropane-1-carboxamide]	1 to 10
C[C@@H](NC(=O)[C@H]1C[C@@H]1c1nc2ccccc2[nH]1)c1ccc(C2CC2)o1 [Example 74, (1S,2S)-2-(1H-benzo[d]imidazol-2-yl)-N—((R)-1-(5-cyclopropylfuran-2-yl)ethyl)cyclopropane-1-carboxamide]	0.1 to 1
COc1ccc2oc([C@@H](C)NC(=O)[C@H]3C[C@@H]3c3nc4ccccc4[nH]3)cc2c1 [Example 79, (1S,2S)-2-(1H-benzo[d]imidazol-2-yl)-N—((R)-1-(5-methoxybenzofuran-2-yl)ethyl)cyclopropane-1-carboxamide]	0.1 to 1
CC(NC(=O)[C@H]1C[C@@H]1c1nc2ccccc2[nH]1)c1cc2ncccc2o1 (stereo partly drawn) [Example 80, (1S,2S)-2-(1H-benzo[d]imidazol-2-yl)-N-(1-(furo[3,2-b]pyridin-2-yl)ethyl)cyclopropane-1-carboxamide]	1 to 10
C[C@@H](NC(=O)[C@H]1C[C@@H]1c1nc2cc(Cl)ccc2[nH]1)c1cc2cc(F)ccc2o1 [Example 81, (1S,2S)-2-(5-chloro-1H-benzo[d]imidazol-2-yl)-N—((R)-1-(5-fluorobenzofuran-2-yl)ethyl)cyclopropane-1-carboxamide]	≤ 0.1
C[C@@H](NC(=O)[C@H]1C[C@@H]1c1nc2ccccc2[nH]1)c1ccc(C(=O)N2CC(F)(F)C2)s1 [Example 83, (1S,2S)-2-(1H-benzo[d]imidazol-2-yl)-N—((R)-1-(5-(3,3-difluoroazetidine-1-carbonyl)thiophen-2-yl)ethyl)cyclopropane-1-carboxamide]	0.1 to 1
C[C@@H](NC(=O)[C@H]1C[C@@H]1c1nc2ccccc2[nH]1)c1ccc(C(=O)N(C)C)s1 [Example 84, 5-((R)-1-((1S,2S)-2-(1H-benzo[d]imidazol-2-yl)cyclopropane-1-carboxamido)ethyl)-N,N-dimethylthiophene-2-carboxamide]	1 to 10
C[C@@H](NC(=O)[C@H]1C[C@@H]1c1nc2ccccc2[nH]1)c1ccc2ccn(C)c2c1 [Example 86, (1S,2S)-2-(1H-benzo[d]imidazol-2-yl)-N—((R)-1-(1-methyl-1H-indol-6-yl)ethyl)cyclopropane-1-carboxamide]	1 to 10
C[C@@H](NC(=O)[C@H]1C[C@@H]1c1nc2ccccc2[nH]1)c1ccc(C(=O)N2CCCCCC2)s1 [Example 87, (1S,2S)—N—((R)-1-(5-(azepane-1-carbonyl)thiophen-2-yl)ethyl)-2-(1H-benzo[d]imidazol-2-yl)cyclopropane-1-carboxamide]	1 to 10
C[C@@H](NC(=O)[C@H]1C[C@@H]1c1nc2ccccc2[nH]1)c1cnc(-c2ccccc2)s1 [Example 89, (1S,2S)-2-(1H-benzo[d]imidazol-2-yl)-N—((R)-1-(2-phenylthiazol-5-yl)ethyl)cyclopropane-1-carboxamide]	0.1 to 1
C[C@@H](NC(=O)[C@H]1C[C@@H]1c1nc2ccccc2[nH]1)c1ccc(C(=O)N2CCC(F)(F)CC2)s1 [Example 94, (1S,2S)-2-(1H-benzo[d]imidazol-2-yl)-N—((R)-1-(5-(4,4-difluoropiperidine-1-carbonyl)thiophen-2-yl)ethyl)cyclopropane-1-carboxamide]	0.1 to 1
C[C@@H](NC(=O)[C@H]1C[C@@H]1c1nc2ccccc2[nH]1)c1ccc(C(=O)N2CCCC(F)C2)s1 (stereo partly drawn) [Example 95, (1S,2S)-2-(1H-benzo[d]imidazol-2-yl)-N-((1R)-1-(5-(3-fluoropiperidine-1-carbonyl)thiophen-2-yl)ethyl)cyclopropane-1-carboxamide]	1 to 10
C[C@@H](NC(=O)[C@H]1C[C@@H]1c1nc2ccccc2[nH]1)c1cc2cccc(F)c2o1 [Example 96, (1S,2S)-2-(1H-benzo[d]imidazol-2-yl)-N—((R)-1-(7-fluorobenzofuran-2-yl)ethyl)cyclopropane-1-carboxamide]	0.1 to 1
C[C@@H](NC(=O)[C@H]1C[C@@H]1c1nc2ccccc2[nH]1)c1cc2c(F)cccc2o1 [Example 97, (1S,2S)-2-(1H-benzo[d]imidazol-2-yl)-N—((R)-1-(4-fluorobenzofuran-2-yl)ethyl)cyclopropane-1-carboxamide]	0.1 to 1
CC(NC(=O)[C@H]1C[C@@H]1c1nc2ccccc2[nH]1)c1cc2cnccc2o1 (stereo partly drawn) [Example 99, (1S,2S)-2-(1H-benzo[d]imidazol-2-yl)-N-(1-(furo[3,2-c]pyridin-2-yl)ethyl)cyclopropane-1-carboxamide]	1 to 10
C[C@@H](NC(=O)[C@H]1C[C@@H]1c1nc2ccccc2[nH]1)c1cc2cc(C#N)ccc2o1 [Example 107, (1S,2S)-2-(1H-benzo[d]imidazol-2-yl)-N—((R)-1-(5-cyanobenzofuran-2-yl)ethyl)cyclopropane-1-carboxamide]	0.1 to 1
CCn1c([C@H]2C[C@@H]2C(=O)N[C@H](C)c2cc3ccc(F)cc3o2)nc2ccccc21 [Example 110, (1S,2S)-2-(1-ethyl-1H-benzo[d]imidazol-2-yl)-N—((R)-1-(6-fluorobenzofuran-2-yl)ethyl)cyclopropane-1-carboxamide]	≤ 0.1
O=C(NCc1cc2cc(F)ccc2o1)[C@H]1C[C@@H]1c1nc2ccccc2[nH]1 [Example 113, (1S,2S)-2-(1H-benzo[d]imidazol-2-yl)-N-((5-fluorobenzofuran-2-yl)methyl)cyclopropane-1-carboxamide]	≤ 0.1
CC(C)[C@H](NC(=O)[C@H]1C[C@@H]1c1nc2ccccc2[nH]1)c1ccc(C(F)(F)F)s1 [Example 115, (1S,2S)-2-(1H-benzo[d]imidazol-2-yl)-N—((S)-2-methyl-1-(5-(trifluoromethyl)thiophen-2-yl)propyl)cyclopropane-1-carboxamide]	0.1 to 1
